Data from publication PMC7408066, “Attenuation of Inflammatory Symptoms by Icariside B2 in Carrageenan and LPS-Induced Inflammation Models via Regulation of MAPK/NF-κB Signaling Cascades” (Biomolecules, 2020).

Molecular target: T1, COX-2 (Ovis aries, UniProt P79208)
T1 construct: gene PTGS2; ovine purified COX-2
T1 sequence (P79208 17-603): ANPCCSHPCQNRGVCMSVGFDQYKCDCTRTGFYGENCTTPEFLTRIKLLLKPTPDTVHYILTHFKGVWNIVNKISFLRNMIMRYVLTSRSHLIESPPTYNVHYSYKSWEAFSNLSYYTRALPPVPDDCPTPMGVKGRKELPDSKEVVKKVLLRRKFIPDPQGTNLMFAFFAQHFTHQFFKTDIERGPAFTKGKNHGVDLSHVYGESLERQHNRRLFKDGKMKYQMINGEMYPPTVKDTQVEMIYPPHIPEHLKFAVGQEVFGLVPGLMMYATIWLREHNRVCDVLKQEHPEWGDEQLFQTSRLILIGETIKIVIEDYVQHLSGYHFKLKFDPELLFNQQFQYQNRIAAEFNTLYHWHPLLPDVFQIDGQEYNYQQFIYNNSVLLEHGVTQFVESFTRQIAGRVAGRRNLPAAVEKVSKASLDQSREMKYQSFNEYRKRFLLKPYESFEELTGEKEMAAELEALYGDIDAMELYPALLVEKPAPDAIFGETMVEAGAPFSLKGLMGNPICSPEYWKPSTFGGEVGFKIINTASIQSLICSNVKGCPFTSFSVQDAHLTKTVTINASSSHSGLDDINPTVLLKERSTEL
Assay: Cayman colorimetric COX (ovine) inhibitor screening assay, purified enzyme
Format: biochemical

Structure (SMILES): CC(=O)/C=C/C12OC1(C)CC(OC1OC(CO)C(O)C(O)C1O)CC2(C)C (stereo not shown) [ICSB, icariside B2]
- IC50: 7.8 ± 0.26 µM
